Experimental findings from patent US20050282743A1, “Molecular interactions in cells” (Arbor Vita Corporation, priority 2001, published 2005) are described below.

Holding throughout (assay type): binding
In test [1] the target is T1, PDZ protein (GST-PDZ fusion) (Homo sapiens, UniProt Q5TCQ9).
T1 construct: made in house; host or cells: E. coli (DH5alpha, BL21 or JM109)
T1 sequence (Q5TCQ9 1-1481): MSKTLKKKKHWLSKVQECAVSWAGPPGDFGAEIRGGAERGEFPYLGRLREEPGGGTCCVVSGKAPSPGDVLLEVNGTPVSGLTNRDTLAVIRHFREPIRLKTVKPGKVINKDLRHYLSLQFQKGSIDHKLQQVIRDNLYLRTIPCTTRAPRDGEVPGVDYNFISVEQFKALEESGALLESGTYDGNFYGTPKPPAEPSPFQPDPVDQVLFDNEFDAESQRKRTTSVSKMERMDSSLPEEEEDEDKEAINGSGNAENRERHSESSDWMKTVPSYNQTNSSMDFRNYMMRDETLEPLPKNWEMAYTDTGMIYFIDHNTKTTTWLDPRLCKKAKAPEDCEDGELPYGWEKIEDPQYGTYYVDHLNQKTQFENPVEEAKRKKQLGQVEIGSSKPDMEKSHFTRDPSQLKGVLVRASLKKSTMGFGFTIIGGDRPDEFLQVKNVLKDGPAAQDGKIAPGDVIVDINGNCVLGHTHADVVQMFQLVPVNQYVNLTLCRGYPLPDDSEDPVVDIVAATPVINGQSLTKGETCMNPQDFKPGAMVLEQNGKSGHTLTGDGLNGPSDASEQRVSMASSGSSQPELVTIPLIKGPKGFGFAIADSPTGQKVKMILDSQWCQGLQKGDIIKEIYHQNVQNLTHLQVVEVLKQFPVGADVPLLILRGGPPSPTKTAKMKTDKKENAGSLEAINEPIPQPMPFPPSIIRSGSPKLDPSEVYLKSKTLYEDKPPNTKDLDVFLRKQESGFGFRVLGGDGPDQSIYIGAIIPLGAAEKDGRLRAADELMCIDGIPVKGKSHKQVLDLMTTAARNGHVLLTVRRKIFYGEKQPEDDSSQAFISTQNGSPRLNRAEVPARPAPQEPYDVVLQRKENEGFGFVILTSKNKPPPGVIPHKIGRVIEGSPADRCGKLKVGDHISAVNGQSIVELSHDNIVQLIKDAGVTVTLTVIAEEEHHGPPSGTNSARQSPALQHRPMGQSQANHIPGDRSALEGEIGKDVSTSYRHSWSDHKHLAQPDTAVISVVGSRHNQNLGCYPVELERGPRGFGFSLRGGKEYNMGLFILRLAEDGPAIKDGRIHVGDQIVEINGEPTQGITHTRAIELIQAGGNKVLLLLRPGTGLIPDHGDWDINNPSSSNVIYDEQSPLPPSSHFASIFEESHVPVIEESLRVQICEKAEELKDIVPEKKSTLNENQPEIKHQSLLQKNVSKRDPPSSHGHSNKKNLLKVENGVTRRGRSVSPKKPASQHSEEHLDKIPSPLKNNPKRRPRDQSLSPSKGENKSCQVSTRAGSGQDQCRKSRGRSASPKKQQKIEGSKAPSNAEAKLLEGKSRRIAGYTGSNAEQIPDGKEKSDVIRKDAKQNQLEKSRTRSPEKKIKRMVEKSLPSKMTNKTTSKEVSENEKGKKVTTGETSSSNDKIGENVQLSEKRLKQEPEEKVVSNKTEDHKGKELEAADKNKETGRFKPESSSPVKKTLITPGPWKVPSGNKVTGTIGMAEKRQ
Description: G' assay (10 uM PL peptide), results of TABLE 7 and TABLE 12. The settings on record: PDZ KIAA1634, PDZ Domain 2. In a few lines: (§1)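 Biotinylated PL peptides at 10 uM (vs 20 uM in G^0 assay) bound to GST-PDZ fusions; PDZ protein at 5 ug/ml unless another concentration listed. Bound peptide read as A450 nm, classified 0–5 (0 = A450 0; 5 = A450 >4 repeated).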

For test [2], the target named is T2, PDZ protein (GST-PDZ fusion) (Homo sapiens, UniProt Q12923).
T2 construct: made in house; host or cells: E. coli (DH5alpha, BL21 or JM109)
T2 sequence (Q12923 whole entry, the tested form may be a part): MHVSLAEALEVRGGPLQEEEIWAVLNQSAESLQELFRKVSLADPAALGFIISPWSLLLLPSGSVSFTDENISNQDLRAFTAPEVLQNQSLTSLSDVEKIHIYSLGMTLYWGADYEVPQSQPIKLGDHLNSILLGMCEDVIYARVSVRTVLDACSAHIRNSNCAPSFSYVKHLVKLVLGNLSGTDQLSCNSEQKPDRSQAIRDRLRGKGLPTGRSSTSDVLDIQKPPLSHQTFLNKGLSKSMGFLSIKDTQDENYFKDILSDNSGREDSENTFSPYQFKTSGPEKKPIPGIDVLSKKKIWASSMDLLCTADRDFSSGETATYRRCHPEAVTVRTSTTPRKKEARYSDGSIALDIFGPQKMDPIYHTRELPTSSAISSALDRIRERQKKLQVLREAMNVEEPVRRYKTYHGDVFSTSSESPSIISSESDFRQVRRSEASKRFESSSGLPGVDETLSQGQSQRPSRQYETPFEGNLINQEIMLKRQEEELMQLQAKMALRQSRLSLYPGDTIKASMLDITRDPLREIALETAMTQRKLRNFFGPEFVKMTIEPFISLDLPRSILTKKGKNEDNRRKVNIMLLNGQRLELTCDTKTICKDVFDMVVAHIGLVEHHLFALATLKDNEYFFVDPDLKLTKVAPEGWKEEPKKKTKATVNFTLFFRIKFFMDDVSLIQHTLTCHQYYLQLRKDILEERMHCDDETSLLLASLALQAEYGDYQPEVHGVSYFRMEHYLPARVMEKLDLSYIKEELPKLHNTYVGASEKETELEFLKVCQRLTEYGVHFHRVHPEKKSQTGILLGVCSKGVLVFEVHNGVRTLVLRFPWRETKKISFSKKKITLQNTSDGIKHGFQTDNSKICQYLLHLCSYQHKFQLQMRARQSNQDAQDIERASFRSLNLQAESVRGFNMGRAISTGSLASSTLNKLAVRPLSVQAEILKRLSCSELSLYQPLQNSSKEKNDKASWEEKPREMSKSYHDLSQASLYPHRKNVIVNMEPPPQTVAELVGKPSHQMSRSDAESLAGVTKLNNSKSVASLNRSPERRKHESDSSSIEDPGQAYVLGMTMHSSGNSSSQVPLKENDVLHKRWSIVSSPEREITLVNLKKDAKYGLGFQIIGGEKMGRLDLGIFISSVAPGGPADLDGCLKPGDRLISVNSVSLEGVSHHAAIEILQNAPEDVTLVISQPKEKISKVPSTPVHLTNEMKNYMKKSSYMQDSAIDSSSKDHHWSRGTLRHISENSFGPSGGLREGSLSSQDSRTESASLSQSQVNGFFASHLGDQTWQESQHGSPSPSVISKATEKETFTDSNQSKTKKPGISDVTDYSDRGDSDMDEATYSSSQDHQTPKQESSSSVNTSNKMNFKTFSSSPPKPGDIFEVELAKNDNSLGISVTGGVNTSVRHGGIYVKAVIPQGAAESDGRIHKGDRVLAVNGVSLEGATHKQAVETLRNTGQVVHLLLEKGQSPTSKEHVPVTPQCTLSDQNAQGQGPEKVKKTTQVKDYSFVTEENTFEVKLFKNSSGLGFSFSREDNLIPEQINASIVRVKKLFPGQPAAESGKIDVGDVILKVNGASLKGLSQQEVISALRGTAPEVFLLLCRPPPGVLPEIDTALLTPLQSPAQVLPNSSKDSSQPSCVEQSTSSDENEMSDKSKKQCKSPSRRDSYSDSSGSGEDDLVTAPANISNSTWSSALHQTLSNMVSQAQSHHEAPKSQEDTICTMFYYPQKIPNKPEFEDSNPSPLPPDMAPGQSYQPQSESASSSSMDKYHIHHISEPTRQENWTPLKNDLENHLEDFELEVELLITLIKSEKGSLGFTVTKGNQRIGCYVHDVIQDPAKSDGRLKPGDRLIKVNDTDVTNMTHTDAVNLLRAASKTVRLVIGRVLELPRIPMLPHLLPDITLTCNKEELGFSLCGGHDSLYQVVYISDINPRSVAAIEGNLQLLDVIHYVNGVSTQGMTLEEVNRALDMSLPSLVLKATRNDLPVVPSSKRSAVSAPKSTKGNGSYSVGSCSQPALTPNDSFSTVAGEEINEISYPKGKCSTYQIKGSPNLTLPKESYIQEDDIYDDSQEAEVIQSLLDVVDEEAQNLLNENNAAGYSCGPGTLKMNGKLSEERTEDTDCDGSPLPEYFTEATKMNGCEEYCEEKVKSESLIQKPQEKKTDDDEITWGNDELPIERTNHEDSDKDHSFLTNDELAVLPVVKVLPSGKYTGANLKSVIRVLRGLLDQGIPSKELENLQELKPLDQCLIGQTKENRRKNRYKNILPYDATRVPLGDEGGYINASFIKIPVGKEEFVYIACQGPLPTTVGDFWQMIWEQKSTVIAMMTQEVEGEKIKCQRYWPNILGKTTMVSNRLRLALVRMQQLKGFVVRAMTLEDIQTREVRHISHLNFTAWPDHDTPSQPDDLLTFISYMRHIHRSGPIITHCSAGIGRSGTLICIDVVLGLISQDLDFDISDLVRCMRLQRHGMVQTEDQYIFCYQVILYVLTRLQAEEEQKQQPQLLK
The description is as above. The procedure, abridged:
as §1

Test [3] deals with T3, PDZ-domain polypeptide (GST/PDZ fusion protein) (Homo sapiens, UniProt Q12923).
T3 construct: made in house; host or cells: E. coli (DH5alpha, BL21 or JM109)
T3 sequence (Q12923 whole entry, the tested form may be a part): as above
Kind of test: Apparent affinity (Kd) by titration of PL peptide in the G assay. Conditions: PDZ PTPL-1, PDZ Domain 2; read-out: Peptide Optimal Conc (non-zero value: Kd by titration of the PL peptide). How it is done:
(§2) The third column labeled “Peptide Optimal Concentration” in the tables is a number reflective of the binding interaction between the PL protein and PDZ protein. […] The column labeled “Protein Optimal Concentration” refers to the protein concentration used to assay PL interaction (in ug/ml); a ‘0’ is indicative of 5 ug/ml protein concentration; any other value represents the concentration (in ug/ml) used to determine the dissociation constant for a given interaction.
(§3) The “A” and “G” assays described supra can be used to determine the “apparent affinity” of binding of a PDZ ligand peptide to a PDZ-domain polypeptide. Apparent affinity is determined based on the concentration of one molecule required to saturate the binding of a second molecule (e.g., the binding of a ligand to a receptor). Two particularly useful approaches for quantitation of apparent affinity of PDZ-ligand binding are provided infra.
(§4) In cases where satisfying the above criteria proves difficult, an alternative approach (infra) can be used.
(§5) (1) A fixed concentration of a PDZ-domain polypeptide and increasing concentrations of a labeled PL peptide (labeled with, for example, biotin or fluorescein, see TABLE 9 for representative peptide amino acid sequences) are mixed together in solution and allowed to react. In certain assays, peptide concentrations are 0.1 uM, 1 uM, 10 uM, 100 uM, 1 mM. In other assays, appropriate reaction times can range from 10 minutes to 2 days at temperatures ranging from 4° C. to 37° C. In some instances, the identical reaction can also be carried out using a non-PDZ domain-containing protein as a control (e.g., if the PDZ-domain polypeptide is fusion protein, the fusion partner can be used).
(§6) (2) PDZ-ligand complexes can be separated from unbound labeled peptide using a variety of methods known in the art.
(§7) (3) The PDZ-ligand complex is detected based on presence of the label on the peptide ligand using a variety of methods and detectors known to one of skill in the art. For example, if the label is fluorescein and the separation is achieved using HPSEC, an in-line fluorescence detector can be used. The binding can also be detected as described supra for the G assay.

Test [4] has as its target T4, PDZ-domain polypeptide (GST/PDZ fusion protein) (Homo sapiens, UniProt Q5TCQ9).
T4 construct: made in house; host or cells: E. coli (DH5alpha, BL21 or JM109)
T4 sequence (Q5TCQ9 1-1481): T1 sequence (Q5TCQ9 1-1481)
The description is as above. The settings on record: PDZ KIAA1634, PDZ Domain 2; read-out: Peptide Optimal Conc (non-zero value: Kd by titration of the PL peptide). How it is done: as §2, §3, §4, §5, §6, §7

The target in test [5] is T5, PDZ protein (GST-PDZ fusion) (Homo sapiens, UniProt Q13796).
T5 construct: made in house; host or cells: E. coli (DH5alpha, BL21 or JM109)
Description: G' assay (10 uM PL peptide), results of TABLE 7 and TABLE 12. Conditions: PDZ hAPXL, PDZ Domain 1. In a few lines: as §1

Test [6] addresses T6, PDZ protein (GST-PDZ fusion) (Homo sapiens, UniProt Q6P0Q8).
T6 construct: made in house; host or cells: E. coli (DH5alpha, BL21 or JM109)
The test is described as above. The procedure, abridged: as §1

In test [7] the target is T7, PDZ protein (GST-PDZ fusion) (Homo sapiens, UniProt Q99767).
T7 construct: made in house; host or cells: E. coli (DH5alpha, BL21 or JM109)
T7 sequence (Q99767 1-749): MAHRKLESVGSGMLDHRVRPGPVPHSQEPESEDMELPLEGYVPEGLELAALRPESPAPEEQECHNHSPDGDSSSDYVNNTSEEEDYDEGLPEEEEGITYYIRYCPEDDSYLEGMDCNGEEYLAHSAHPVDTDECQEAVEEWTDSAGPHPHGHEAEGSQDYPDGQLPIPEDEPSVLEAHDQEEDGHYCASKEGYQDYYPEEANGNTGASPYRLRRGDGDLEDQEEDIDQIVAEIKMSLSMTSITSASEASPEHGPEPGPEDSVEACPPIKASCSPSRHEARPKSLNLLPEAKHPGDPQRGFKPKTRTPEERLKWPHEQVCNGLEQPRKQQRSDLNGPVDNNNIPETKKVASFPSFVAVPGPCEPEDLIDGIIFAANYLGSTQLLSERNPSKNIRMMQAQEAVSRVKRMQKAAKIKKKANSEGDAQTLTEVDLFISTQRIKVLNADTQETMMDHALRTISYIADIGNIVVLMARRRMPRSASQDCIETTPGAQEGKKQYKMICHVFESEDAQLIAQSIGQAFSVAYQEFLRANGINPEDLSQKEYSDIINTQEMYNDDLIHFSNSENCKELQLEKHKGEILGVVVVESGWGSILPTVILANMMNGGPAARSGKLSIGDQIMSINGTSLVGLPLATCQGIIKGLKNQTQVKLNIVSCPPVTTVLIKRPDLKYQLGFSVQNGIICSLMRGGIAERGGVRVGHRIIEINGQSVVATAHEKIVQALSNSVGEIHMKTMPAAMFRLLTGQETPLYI
Described as above. Conditions: PDZ X11-beta, PDZ Domain 2. The procedure, abridged:
as §1

Test [8] addresses T8, PDZ protein (GST-PDZ fusion) (Homo sapiens, UniProt Q02410).
T8 construct: made in house; host or cells: E. coli (DH5alpha, BL21 or JM109)
T8 sequence (Q02410 1-837): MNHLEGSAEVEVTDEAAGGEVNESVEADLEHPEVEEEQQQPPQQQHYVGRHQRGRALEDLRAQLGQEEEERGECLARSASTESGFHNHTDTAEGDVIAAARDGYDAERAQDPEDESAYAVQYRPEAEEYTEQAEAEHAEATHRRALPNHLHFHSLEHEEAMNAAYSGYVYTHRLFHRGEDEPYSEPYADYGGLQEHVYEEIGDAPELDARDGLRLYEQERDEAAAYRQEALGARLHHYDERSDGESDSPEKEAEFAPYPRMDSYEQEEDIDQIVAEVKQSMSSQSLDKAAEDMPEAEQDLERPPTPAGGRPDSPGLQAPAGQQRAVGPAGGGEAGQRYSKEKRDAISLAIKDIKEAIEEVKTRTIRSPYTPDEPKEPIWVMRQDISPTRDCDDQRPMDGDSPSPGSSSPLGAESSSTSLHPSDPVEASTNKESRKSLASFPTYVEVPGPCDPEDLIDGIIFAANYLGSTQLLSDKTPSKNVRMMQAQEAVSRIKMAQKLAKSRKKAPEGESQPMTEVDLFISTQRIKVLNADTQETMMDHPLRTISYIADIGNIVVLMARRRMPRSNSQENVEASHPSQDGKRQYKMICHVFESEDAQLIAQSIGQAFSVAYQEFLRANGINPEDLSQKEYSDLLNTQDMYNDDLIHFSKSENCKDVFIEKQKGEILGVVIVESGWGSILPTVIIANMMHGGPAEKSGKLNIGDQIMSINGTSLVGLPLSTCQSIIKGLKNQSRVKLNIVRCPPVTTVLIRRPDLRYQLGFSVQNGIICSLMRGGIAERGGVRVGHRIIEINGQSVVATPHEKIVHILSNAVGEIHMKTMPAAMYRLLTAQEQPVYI
Described as above. The procedure, abridged: as §1

The target of test [9] is T9, PDZ protein (GST-PDZ fusion) (Homo sapiens, UniProt O75970).
T9 construct: made in house; host or cells: E. coli (DH5alpha, BL21 or JM109)
Described as above. The settings on record: PDZ MUPP-1, PDZ Domain 10. In a few lines:
as §1

Test [10] has as its system PDZ protein (GST-PDZ fusion). The test is described as above. The settings on record: PDZ BAI-1, PDZ Domain 4. In a few lines: as §1

Peptide text beside a SMILES is read from it. * marks the point of attachment. Biotin = O=C1N[C@H]2[C@H](CS[C@H]2CCCCC(=O)*)N1

T6 sequence (Q6P0Q8 whole entry, the tested form may be a part): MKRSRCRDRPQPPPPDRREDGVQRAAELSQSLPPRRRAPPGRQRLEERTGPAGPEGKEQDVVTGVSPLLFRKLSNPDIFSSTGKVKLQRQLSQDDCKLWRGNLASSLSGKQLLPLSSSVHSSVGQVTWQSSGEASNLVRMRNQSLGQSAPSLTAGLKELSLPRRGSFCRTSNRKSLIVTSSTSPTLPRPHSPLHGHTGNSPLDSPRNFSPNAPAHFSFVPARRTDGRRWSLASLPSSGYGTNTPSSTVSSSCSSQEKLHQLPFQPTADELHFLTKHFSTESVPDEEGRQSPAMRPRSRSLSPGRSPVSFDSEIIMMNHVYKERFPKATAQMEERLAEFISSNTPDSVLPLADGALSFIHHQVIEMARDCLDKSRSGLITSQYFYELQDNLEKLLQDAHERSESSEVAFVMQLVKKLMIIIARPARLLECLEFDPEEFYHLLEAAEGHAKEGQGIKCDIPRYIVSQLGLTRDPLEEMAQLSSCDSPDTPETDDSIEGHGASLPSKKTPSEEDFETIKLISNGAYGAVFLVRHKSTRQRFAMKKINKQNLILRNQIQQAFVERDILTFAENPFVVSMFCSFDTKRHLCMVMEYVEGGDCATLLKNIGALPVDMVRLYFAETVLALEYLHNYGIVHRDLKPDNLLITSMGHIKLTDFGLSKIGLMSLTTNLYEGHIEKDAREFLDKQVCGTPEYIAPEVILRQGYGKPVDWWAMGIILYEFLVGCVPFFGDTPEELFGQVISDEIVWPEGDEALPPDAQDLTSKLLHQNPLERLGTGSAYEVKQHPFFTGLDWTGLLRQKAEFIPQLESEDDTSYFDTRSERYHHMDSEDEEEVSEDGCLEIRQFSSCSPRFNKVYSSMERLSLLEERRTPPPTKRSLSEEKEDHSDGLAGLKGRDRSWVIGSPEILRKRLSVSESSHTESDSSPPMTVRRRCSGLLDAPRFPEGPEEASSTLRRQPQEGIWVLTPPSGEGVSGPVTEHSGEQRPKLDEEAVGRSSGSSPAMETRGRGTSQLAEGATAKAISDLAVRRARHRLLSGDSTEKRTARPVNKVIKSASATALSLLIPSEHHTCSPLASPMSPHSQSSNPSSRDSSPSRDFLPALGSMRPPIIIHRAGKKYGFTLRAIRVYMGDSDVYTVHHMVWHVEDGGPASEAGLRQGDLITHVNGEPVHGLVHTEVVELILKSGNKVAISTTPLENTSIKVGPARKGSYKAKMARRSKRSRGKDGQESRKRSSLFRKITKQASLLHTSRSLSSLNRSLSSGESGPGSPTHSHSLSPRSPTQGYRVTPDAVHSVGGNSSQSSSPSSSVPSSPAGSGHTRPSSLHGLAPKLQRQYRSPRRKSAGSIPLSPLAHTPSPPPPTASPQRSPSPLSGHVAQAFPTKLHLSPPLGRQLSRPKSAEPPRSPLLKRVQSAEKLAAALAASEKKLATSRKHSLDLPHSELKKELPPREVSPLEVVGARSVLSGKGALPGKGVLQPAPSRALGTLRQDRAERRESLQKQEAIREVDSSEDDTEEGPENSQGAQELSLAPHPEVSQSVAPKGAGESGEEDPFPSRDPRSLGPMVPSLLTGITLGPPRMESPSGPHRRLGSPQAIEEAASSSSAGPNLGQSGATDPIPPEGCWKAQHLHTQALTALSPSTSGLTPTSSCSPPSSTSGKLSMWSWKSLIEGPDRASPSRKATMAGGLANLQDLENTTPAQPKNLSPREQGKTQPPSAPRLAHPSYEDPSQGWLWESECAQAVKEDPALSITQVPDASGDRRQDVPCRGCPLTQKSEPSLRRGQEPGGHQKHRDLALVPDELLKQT

Take `CC[C@H](C)[C@H](NC(=O)CCCC[C@@H]1SC[C@@H]2NC(=O)N[C@@H]21)C(=O)N[C@H](C(=O)N[C@H](C(=O)N[C@H](C(=O)N[C@H](C(=O)N[C@H](C(=O)N[C@@H](CCSC)C(=O)N[C@H](C(=O)N[C@H](C(=O)N[C@@H](CC(N)=O)C(=O)N[C@H](C(=O)N[C@@H](CC(=O)O)C(=O)N[C@@H](Cc1ccccc1)C(=O)N1CCC[C@H]1C(=O)N1CCC[C@H]1C(=O)N[C@@H](CCCCN)C(=O)N[C@@H](CCC(=O)O)C(=O)N[C@@H](CO)C(=O)N[C@@H](CO)C(=O)N[C@@H](CC(C)C)C(=O)O)C(C)C)[C@@H](C)O)C(C)C)[C@@H](C)O)C(C)C)C(C)C)[C@@H](C)O)C(C)C` [ActRIIA] (Biotin-IVTVVTMVTNVDFPPKESSL-OH; C-terminus assumed): the Classification was 2 (A450 nm 1-2) in [1] and 3 (A450 nm 2-3) in test [2] (PDZ PTPL-1, PDZ Domain 2). Also, the Kd in test [3] and in test [4] was 5 µM in each case.

As for “NGGFAVDKSDTISFTQTSQF [glutamate transporter 3]”, the Classification in [5] is listed as 1 (A450 nm 0-1); in [6] (PDZ KIAA807), 1 (A450 nm 0-1); in [6] (PDZ KIAA0807(S), PDZ Domain 1), 1 (A450 nm 0-1); in test [7], 1 (A450 nm 0-1); in test [8] (PDZ Mint 1, PDZ Domain 1, 2), 1 (A450 nm 0-1); in [8] (PDZ Mint 1, PDZ Domain 2), 1 (A450 nm 0-1). The Classification in test [2] (PDZ PTPL-1, PDZ Domain 4) is recorded as 1 (A450 nm 0-1); in [9], 1 (A450 nm 0-1); in test [10] it was 1 (A450 nm 0-1).
